Assay results as given in ChEMBL document CHEMBL3098062, “Influenza RNA-Dependent RNA Polymerase (RdRp) Inhibitors: Potential New Therapy for Influenza Treatment” (ACS Med Chem Lett, 2013).

Tests used:
Influenza B virus = assay: Antiviral activity against Influenza B virus Lee/40 infected in human bronchial/tracheal epithelial cells after 5 days by fluorescence assay; format: functional, organism-based; details: B/Lee/1940, Epithelial cell, Trachea, 120 h
Influenza A virus = assay: Antiviral activity against Influenza A virus PC/1/73 infected in human bronchial/tracheal epithelial cells after 5 days by fluorescence assay; format: functional, organism-based; details: PC/1/73, Epithelial cell, Trachea, 120 h

Compound: Nc1ncnn2c([C@@H]3O[C@H](CO)[C@@H](O)[C@H]3F)cnc12
- EC50 (Influenza B virus): 0.9 µM
- EC50 (Influenza A virus): 0.9 µM

Compound: Nc1nc(F)nn2c([C@@H]3O[C@H](CO)[C@@H](O)[C@H]3F)cnc12
- EC50 (Influenza B virus): > 100 µM
- EC50 (Influenza A virus): > 100 µM

Compound: CCOc1nc(N)nn2c([C@@H]3O[C@H](CO)[C@@H](O)[C@H]3F)cnc12
- EC50 (Influenza B virus): > 200 µM
- EC50 (Influenza A virus): > 200 µM

Compound: Nc1nc(N)c2ncc([C@@H]3O[C@H](CO)[C@@H](O)[C@H]3F)n2n1
- EC50 (Influenza B virus): 51 µM
- EC50 (Influenza A virus): 21 µM
